In brackets after ≈: the same amount, converted by molar mass. Where two headings read alike, the source gives them in different places.
Assays:
[1] = tested on: erythromycin A susceptible organisms and Hemophilus influenzae; assay: spectrum of antibacterial activity; assay type: cell-based
From the text: (§1) Generally twelve 2 fold dilutions of the test compound are employed, with initial concentration of the test drug being in the range of 50 to 200 mcg./ml. The susceptibility (MIC) of the test organism is accepted as the lowest concentration of compound capable of producing complete inhibition of growth as judged by the naked eye. A comparison of the activity of 4"-epi-9-deoxo-9a-methyl-9a-aza-9a-homoerythromycin A (IV) with that of an erythromycin A control is shown in replicate in the Table I.

[2] = microbiological (bioassay) determination of serum levels in rats
Method: Additionally, compound (IV) is tested in vivo by the well-known mouse protection test, or by a microbiological (bioassay) determination of serum levels in a variety of mammals (e.g., mouse, rat, dog).

H. influ. 038 = assay: MIC in brain heart infusion (BHI) broth; assay type: cell-based, Hemophilus influenzae; details: Haemophilus influenzae
From the text: as §1

H. influ. 051 = assay: MIC in brain heart infusion (BHI) broth; assay type: cell-based, Hemophilus influenzae; details: Haemophilus influenzae
From the text: as §1

H. influ. 042 = assay: MIC in brain heart infusion (BHI) broth; assay type: cell-based, Hemophilus influenzae; details: Haemophilus influenzae
From the text: as §1

H. influ. 078 = assay: MIC in brain heart infusion (BHI) broth; assay type: cell-based, Hemophilus influenzae; details: Haemophilus influenzae
From the text: as §1

H. influ. 081 = assay: MIC in brain heart infusion (BHI) broth; assay type: cell-based, Hemophilus influenzae; details: Haemophilus influenzae
From the text: as §1

H. influ. 036 = assay: MIC in brain heart infusion (BHI) broth; assay type: cell-based, Hemophilus influenzae; details: Haemophilus influenzae
From the text: as §1

H. influ. 012 = assay: MIC in brain heart infusion (BHI) broth; assay type: cell-based, Hemophilus influenzae; details: Haemophilus influenzae
From the text: as §1

H. influ. 073 = assay: MIC in brain heart infusion (BHI) broth; assay type: cell-based, Hemophilus influenzae; details: Haemophilus influenzae
From the text: as §1

[3] = oral absorption and half-life in vivo
E. Coli 470 = assay: MIC in brain heart infusion (BHI) broth; assay type: cell-based; details: Escherichia coli, BHI broth, read-out: MIC
From the text: as §1

Staph. aur. 005 = assay: MIC in brain heart infusion (BHI) broth; assay type: cell-based
From the text: as §1

Staph. aur. 400 = assay: MIC in brain heart infusion (BHI) broth; assay type: cell-based
From the text: as §1

E. Coli 129 = assay: MIC in brain heart infusion (BHI) broth; assay type: cell-based; details: Escherichia coli
From the text: as §1

Staph. aur. 052 = assay: MIC in brain heart infusion (BHI) broth; assay type: cell-based
From the text: as §1

Staph. epi 111 = assay: MIC in brain heart infusion (BHI) broth; assay type: cell-based
From the text: as §1

Ent. cloac. 009 = assay: MIC in brain heart infusion (BHI) broth; assay type: cell-based
From the text: as §1

Strep. pneumo. 012 = assay: MIC in brain heart infusion (BHI) broth; assay type: cell-based
From the text: as §1

Kleb. oxy. 024 = assay: MIC in brain heart infusion (BHI) broth; assay type: cell-based
From the text: as §1

Prov. strua. 013 = assay: MIC in brain heart infusion (BHI) broth; assay type: cell-based
From the text: as §1

Ent. aerog. 040 = assay: MIC in brain heart infusion (BHI) broth; assay type: cell-based
From the text: as §1

Serr. mar. 017 = assay: MIC in brain heart infusion (BHI) broth; assay type: cell-based
From the text: as §1

Kleb. pn. 031 = assay: MIC in brain heart infusion (BHI) broth; assay type: cell-based
From the text: as §1

Strep. pyog. 203 = assay: MIC in brain heart infusion (BHI) broth; assay type: cell-based
From the text: as §1

E. Coli 266 = assay: MIC in brain heart infusion (BHI) broth; assay type: cell-based; details: Escherichia coli
From the text: as §1

Strep. faec. 006 = assay: MIC in brain heart infusion (BHI) broth; assay type: cell-based
From the text: as §1

Neiss. sic. 000 = assay: MIC in brain heart infusion (BHI) broth; assay type: cell-based
From the text: as §1

E. Coli 125 = assay: MIC in brain heart infusion (BHI) broth; assay type: cell-based; details: Escherichia coli
From the text: as §1

Kleb. pn. 009 = assay: MIC in brain heart infusion (BHI) broth; assay type: cell-based
From the text: as §1

Past. mult. 001 = assay: MIC in brain heart infusion (BHI) broth; assay type: cell-based; details: BHI broth, read-out: MIC
From the text: as §1

[4] = 48 h, Day 2, BHI broth, read-out: MIC
[5] = 24 h, Day 1, BHI broth, read-out: MIC

In the case of `CC[C@H]1OC(=O)[C@H](C)[C@@H](O[C@H]2C[C@@](C)(OC)[C@H](O)[C@H](C)O2)[C@H](C)[C@@H](O[C@@H]2O[C@H](C)C[C@H](N(C)C)[C@H]2O)[C@](C)(O)C[C@@H](C)CN(C)[C@H](C)[C@@H](O)[C@]1(C)O` [Compound (IV), 4"-epi-9-deoxo-9a-methyl-9a-aza-9a-homoerythromycin A], the “spectrum of antibacterial activity” value [1] is reported as “relatively broad spectrum of antibacterial activity which includes erythromycin A susceptible organisms and, in addition, fully incorporates the major respiratory pathogen Hemophilus influenzae”, the “absorption after oral dosage” value [2] is reported as “exceptionally well absorbed” and the serum levels ([2]; oral) is reported as “exceptionally high and long lasting serum levels”. The MIC (H. influ. 038; 24 h) was 0.39 µg/mL (≈ 0.521 µM), the MIC (H. influ. 038; [4]) was 0.78 µg/mL (≈ 1.04 µM) and the MIC (H. influ. 051; 24 h) was 0.39 µg/mL (≈ 0.521 µM). For the same compound, the MIC (H. influ. 051; [4]) was 0.78 µg/mL (≈ 1.04 µM), the MIC (H. influ. 042; 24 h, Day 1) was 0.39 µg/mL (≈ 0.521 µM) and the MIC (H. influ. 042; 48 h, Day 2) was 0.39 µg/mL (≈ 0.521 µM). It also gave an MIC (H. influ. 078; 24 h, Day 1) of 0.39 µg/mL (≈ 0.521 µM), an MIC (H. influ. 078; 48 h, Day 2) of 0.39 µg/mL (≈ 0.521 µM) and an MIC (H. influ. 081; 24 h) of 0.39 µg/mL (≈ 0.521 µM). For the same compound, the MIC (H. influ. 081; [4]) was 0.78 µg/mL (≈ 1.04 µM), the MIC (H. influ. 036; 24 h, Day 1) was 0.39 µg/mL (≈ 0.521 µM) and the MIC (H. influ. 036; 48 h, Day 2) was 0.39 µg/mL (≈ 0.521 µM). It also gave an MIC (H. influ. 012; 24 h, Day 1) of 0.39 µg/mL (≈ 0.521 µM), an MIC (H. influ. 012; 48 h, Day 2) of 0.39 µg/mL (≈ 0.521 µM) and an MIC (H. influ. 073; 24 h) of 0.39 µg/mL (≈ 0.521 µM). The MIC (H. influ. 073; [4]) was 0.78 µg/mL (≈ 1.04 µM), the half-life in vivo ([3]; in vivo) was “extraordinarily long half-life in vivo” and the oral absorption ([3]; oral) was “high oral absorption”. The MIC (E. Coli 470; 24 h, Day 1) was 0.78 µg/mL (≈ 1.04 µM), the MIC (E. Coli 470; 48 h, Day 2) was 0.78 µg/mL (≈ 1.04 µM) and the MIC (Staph. aur. 005; [5]) was 0.2 µg/mL (≈ 0.267 µM). It also gave an MIC (Staph. aur. 005; 48 h) of 0.39 µg/mL (≈ 0.521 µM), an MIC (Staph. aur. 400; 24 h) of 3.12 µg/mL (≈ 4.17 µM) and an MIC (Staph. aur. 400; [4]) of 12.5 µg/mL (≈ 16.7 µM). The MIC (E. Coli 129; 24 h) was 1.56 µg/mL (≈ 2.08 µM), the MIC (E. Coli 129; 48 h) was 6.25 µg/mL (≈ 8.34 µM) and the MIC (Staph. aur. 052; [5]) was 0.2 µg/mL (≈ 0.267 µM). It also gave an MIC (Staph. aur. 052; 48 h) of 0.39 µg/mL (≈ 0.521 µM), an MIC (Staph. epi 111; 24 h, Day 1) of 0.1 µg/mL (≈ 0.134 µM) and an MIC (Staph. epi 111; 48 h, Day 2) of 0.2 µg/mL (≈ 0.267 µM). For the same compound, the MIC (Ent. cloac. 009; 24 h, Day 1) was 25 µg/mL (≈ 33.4 µM), the MIC (Ent. cloac. 009; 48 h, Day 2) was 25 µg/mL (≈ 33.4 µM) and the MIC (Strep. pneumo. 012; 24 h, Day 1) was 0.025 µg/mL (≈ 0.0334 µM). The MIC (Strep. pneumo. 012; 48 h, Day 2) was 0.025 µg/mL (≈ 0.0334 µM), the MIC (Kleb. oxy. 024; 24 h, Day 1) was 12.5 µg/mL (≈ 16.7 µM) and the MIC (Kleb. oxy. 024; 48 h, Day 2) was 12.5 µg/mL (≈ 16.7 µM). It also gave an MIC (Prov. strua. 013; 24 h, Day 1) of 50 µg/mL (≈ 66.8 µM), an MIC (Prov. strua. 013; 48 h, Day 2) of 50 µg/mL (≈ 66.8 µM) and an MIC (Ent. aerog. 040; 24 h, Day 1) of 12.5 µg/mL (≈ 16.7 µM). The MIC (Ent. aerog. 040; 48 h, Day 2) was 12.5 µg/mL (≈ 16.7 µM), the MIC (Serr. mar. 017; 24 h, Day 1) was 50 µg/mL (≈ 66.8 µM) and the MIC (Serr. mar. 017; 48 h, Day 2) was 50 µg/mL (≈ 66.8 µM). It also gave an MIC (Kleb. pn. 031; 24 h, Day 1) of 12.5 µg/mL (≈ 16.7 µM), an MIC (Kleb. pn. 031; 48 h, Day 2) of 12.5 µg/mL (≈ 16.7 µM) and an MIC (Strep. pyog. 203; 24 h, Day 1) of 0.025 µg/mL (≈ 0.0334 µM). The MIC (Strep. pyog. 203; 48 h, Day 2) was 0.025 µg/mL (≈ 0.0334 µM), the MIC (E. Coli 266; 24 h) was 3.12 µg/mL (≈ 4.17 µM) and the MIC (E. Coli 266; 48 h) was 6.25 µg/mL (≈ 8.34 µM). The MIC (Strep. faec. 006; 24 h) was 1.56 µg/mL (≈ 2.08 µM), the MIC (Strep. faec. 006; [4]) was 0.78 µg/mL (≈ 1.04 µM) and the MIC (Neiss. sic. 000; [5]) was 0.2 µg/mL (≈ 0.267 µM). The MIC (Neiss. sic. 000; 48 h) was 0.39 µg/mL (≈ 0.521 µM), the MIC (E. Coli 125; 24 h) was 6.25 µg/mL (≈ 8.34 µM) and the MIC (E. Coli 125; 48 h) was 6.25 µg/mL (≈ 8.34 µM). The MIC (Kleb. pn. 009; 24 h, Day 1) was 12.5 µg/mL (≈ 16.7 µM), the MIC (Kleb. pn. 009; 48 h, Day 2) was 12.5 µg/mL (≈ 16.7 µM) and the MIC (Past. mult. 001; 24 h, Day 1) was 0.1 µg/mL (≈ 0.134 µM). It also gave an MIC (Past. mult. 001; 48 h, Day 2) of 0.1 µg/mL (≈ 0.134 µM).

Reference: patent US4526889A, “Epimeric azahomoerythromycin A derivative, intermediates and method of use” (Pfizer Inc., priority 1984, dated 1985)
